“Also recorded” adds a separate entry of the source. Where two headings read alike, the source gives them in different places.
How the values were obtained:
[1] = PET; ref Ettrup et al., 2011; cited from earlier work
male Wistar rats [2] = assay: Open field test (OFT); assay type: in vivo
Protocol: OFT was performed in a black square plastic arena (80 × 80 × 40 cm) in an evenly lit and sound-proof testing room. Rats were individually placed into the centre and allowed to explore the arena for 30 min while their behaviour was recorded. The experimental arena was cleaned with 70% ethanol after each subject. Arena was virtually divided into a 5 × 5 grid of identical squares; 16 squares were located next to the walls (peripheral zone) and 9 squares were in the centre (central zone). Software EthoVision XT 14.0 software (Noldus, Netherlands) was used to capture raw data used in the calculation of the following dependent variables: trajectory length (cm; corrected for deviations of <3 cm) and its temporal dynamics in 5 min intervals; thigmotaxis (∑fperipheral zones/∑fall zones, f = frequency of appearance in the zone) reflecting the probability of appearance in the peripheral zone; Tcenter reflecting time spent in the centre of the arena (∑timecentral zones).
Locomotor activity in OFT (mean trajectory length across 5 min blocks) was evaluated using a 2 × 4 × 6 mixed factorial ANOVA with temporal testing onset (15 or 60 min) and drug treatment (2C-B-Fly-NBOMe 0.2, 1, or 5 mg/kg or ctrl) as between-subjects factors, and time blocks (6 × 5 min intervals) as a within-subjects factor. Spatial distribution of animal movement in OFT (thigmotaxis and T center) and PPI parameters (habituation, ASR and % of PPI) were each analysed using a 2 × 4 factorial ANOVA with temporal testing onset (15 or 60 min) and drug treatment (2C-B-Fly-NBOMe 0.2, 1, or 5 mg/kg or ctrl) as between-subjects factors.

[3] = three different systems; ref Nykodemová et al., 2021; cited from earlier work
[4] = Pharmacokinetics of 2C-B-Fly-NBOMe in blood serum and brain tissue (LC/MS); assay type: in vivo, male Wistar rats; details: for k el: read-out: ke (h^-1) elimination rate constant (converted)
Protocol: For the pharmacokinetic study, rats were treated with 1 mg/kg s. c. of 2C-B-Fly-NBOMe and then sacrificed by decapitation after 0.5, 1, 2, 4, 8 and 24 h (n = 8 per time point). Collected blood was left to clot in a refrigerator for 1 h, then centrifuged for 10 min at 1500 g, 10°C, and the separated serum was collected. Whole brains were excised manually using surgical instruments. All serum and brain samples were stored at −20°C until the analysis.
200 μl of blood serum was diluted in a microtube with 200 μl of 1% ammonia solution and homogenized in a Bullet Blender tissue homogenizer (speed 2, time 5 min). Next, 400 μl of ethyl acetate was added by the automatic dispenser and the whole content was homogenized again (speed 3, time 5 min), additional 400 μl of ethyl acetate was added and the sample was homogenized for the last time. The homogenate was centrifuged (10 min, 25°C, 12,000 RPM), 600 μl of the top layer was transferred into a new microtube and 50 μl of 10% formic acid solution was added. After proper shaking, the solution was evaporated in the CentriVap concentrator. The residue was then dissolved in 100 μl of methanol and shaken for 10 min. Prior to the analysis, the solution was diluted 1:1 in deionized water, mixed and centrifuged.
100 µL of 1% ammonium hydroxide solution was added to 200 mg of brain tissue. A mixture was homogenized with 200 mg of zirconium oxide beads in a BulletBlender for 10 min (speed 5). 400 μL of ethyl acetate was added to the mixture and homogenized (BulletBlender, speed 3, time 5 min). Additional 400 µL of ethyl acetate was added to the mixture and homogenized (BulletBlender, speed 3, time 5 min). Samples were centrifuged (10 min, 25°C, 12,000 RPM), 400 µL of supernatant was acidified and completely evaporated (Centrivap Concentrator). The dry residue was reconstituted with 400 µL of methanol. Prior to the analysis, 250 µL of the solution was diluted with 750 µL of water, mixed, and centrifuged (0.2 µm PVDF filter).
The samples were analysed using ultra-high performance liquid chromatography-tandem mass spectrometry instrumentation (1,290 Infinity—6,460 Triple Quadrupole LC/MS Agilent Technologies with AJS electrospray ionization source). A column Kinetex Biphenyl (100 × 2.1 mm, 2.6 µm) with a pre-column was used for a chromatographic separation at 35°C with gradient elution in a system of 5 mM ammonium formate with 0.01% (v/v) formic acid (mobile phase A) and methanol with 0.01% (v/v) formic acid (mobile phase B). The gradient started at 10% B, increased from 10% to 50% B in 0.5 min and from 50% to 100% B in 1.5 min, held for 2 min at 100% B, decreased to 10% B in 0.5 min and held for 2 min at 10% B. Data were acquired in positive electrospray ionization (ESI) mode using a multiple reaction monitoring method, one quantification ion and three confirmation ions were used. 2C-B-Fly-NBOMe was quantified using an external matrix-matched calibration. The limit of quantification was 1 ng/ml (1 ng/g for brain tissue). The matrix-matched calibration was performed in duplicates; real samples were also processed in duplicates.
For the pharmacokinetic data, a one-compartment model with a first-order absorption equation ([Wijnand, 1988]) was fitted using a cubic spline interpolation: Ct=D·ka·F/V/ka−ke×expke·t−exp(−ka·t Where C = 2C-B-Fly-NBOMe concentration, t = time, D = dose, ka = absorption rate constant, F = bioavailability, V = volume of distribution, ke = elimination rate constant.
The half-life of the drug elimination was calculated using Package PKNCA version 0.9.4 implemented in R software ([Buckeridge et al., 2015]).

male Wistar rats [5] = assay: Observation of 5-HT2A-related behaviour (head-twitch response, wet dog shakes); details: rat, in vivo
[6] = 0.2, 1 and 5 mg/kg s. c., 15 and 60 min onset
[7] = brain, 1 mg/kg s. c., mean ± SEM
[8] = male, Wistar, rat, sc, brain, 1 mg/kg s. c., mean ± SEM
[9] = male, Wistar, rat, sc, serum, 1 mg/kg s. c., mean ± SEM
[10] = serum, 1 mg/kg s. c., mean ± SEM

SMILES: COc1ccccc1CNCCc1c2c(c(Br)c3c1OCC3)OCC2 [2C-B-Fly-NBOMe]
- cortical uptake [1]: highest cortical uptake among the examined NBOMes
- penetration of brain tissue [1]: readily penetrated the brain tissue
- Tcentre (time spent in the centre of the arena) (male Wistar rats [2]; [6]): not affected
- thigmotaxis (male Wistar rats [2]; [6]): not affected
- total trajectory length (locomotor activity) versus ctrl (male Wistar rats [2]; 0.2, 1 and 5 mg/kg s. c., 15 and 60 min testing onset): dose-dependently reduced; also recorded: significant differences in all remaining groups versus ctrl except for 0.2 mg/kg of 2C-B-Fly-NBOMe in the 60 min onset
- Locomotor habituation (male Wistar rats [2]; 0.2, 1 and 5 mg/kg s. c., both testing onsets): dose-dependently disturbed
- locomotion in 5 min time blocks versus ctrl (male Wistar rats [2]; 15 min onset, 1 mg/kg s. c., p < 0.05): persisted until the fourth block
- locomotion in 5 min time blocks versus ctrl (male Wistar rats [2]; 15 min onset, 5 mg/kg s. c., p < 0.05–0.001): significant hypolocomotion during the whole session
- locomotion in 5 min time blocks versus ctrl (male Wistar rats [2]; 15 min onset, all the doses (0.2, 1, 5 mg/kg s. c.), p < 0.001): significantly decreased activity in the first three blocks
- locomotion in 5 min time blocks versus ctrl (male Wistar rats [2]; 60 min onset, 1 mg/kg and 5 mg/kg groups, p < 0.01–0.001): persisted to the fifth block
- locomotion in 5 min time blocks versus ctrl (male Wistar rats [2]; 60 min onset, all groups (0.2, 1, 5 mg/kg s. c.), p < 0.05–0.001): reduced activity in the first two blocks
- number of phase I metabolites [3]: thirty-five
- number of phase II metabolites [3]: nine
- Maximum mean concentration ([4]; blood serum, 1 mg/kg s. c.): 28 ng/mL
- Time of maximum mean concentration ([4]; blood serum, 1 mg/kg s. c.): ≤ 0.5 h
- Time of peak drug concentration ([4]; brain tissue, 1 mg/kg s. c.): 60 min
- passage through the blood-brain barrier ([4]; brain versus serum concentration, 1 mg/kg s. c.): readily passes through the blood-brain barrier
- AUC0-24 h [4, 7]: 826.3 ± 112.6 ng·h/g
- ka (h^-1) absorption rate constant [4, 7]: 0.685 ± 0.034 h⁻¹
- Tmax ([4]; male, Wistar, rat, sc, brain, 1 mg/kg s. c.): 66 min
- half-life ([4]; male, Wistar, rat, sc, brain, 1 mg/kg s. c., Table 1, read-out: t1/2 (converted)): 192 min
- Cmax [4, 8]: 159 ± 15.3 ng/g
- k el [4, 8]: 0.655 h⁻¹
- Tmax ([4]; male, Wistar, rat, sc, serum, 1 mg/kg s. c.): 48 min
- half-life ([4]; male, Wistar, rat, sc, serum, 1 mg/kg s. c., Table 1, read-out: t1/2 (converted)): 153 min
- Cmax [4, 9]: 28.4 ± 6.33 ng/mL
- bioavailability ([4]; male, Wistar, rat, sc, serum, 1 mg/kg s. c., mean ± SEM, one-compartment model, read-out: F (%) bioavailability): 96.1 ± 4.8%
- AUC(0-t) ([4]; male, Wistar, rat, sc, serum, 1 mg/kg s. c., mean ± SEM, read-out: AUC0-24 h): 115 ± 25.6 ng·h/mL
- k el [4, 9]: 0.733 h⁻¹
- half-life ([4]; male, Wistar, rat, subcutaneous, blood serum, 1 mg/kg s. c., read-out: half-life of elimination (converted)): 93.6 min
- half-life ([4]; male, Wistar, rat, subcutaneous, brain, 1 mg/kg s. c., read-out: half-life of elimination (converted)): 144 min
- concentration at 8 h ([4]; male, Wistar, rat, subcutaneous, brain, 8 h after 1 mg/kg s. c.): 21 ng/g
- Time of peak drug concentration ([4]; serum, 1 mg/kg s. c.): 30 min
- V d (mL) volume of distribution [4, 10]: 7.231 ± 0.362 mL
- ka (h^-1) absorption rate constant [4, 10]: 0.731 ± 0.036 h⁻¹
- presence in serum after 8 h ([4]; serum, 8 h after 1 mg/kg s. c.): almost undetectable
- behaviour typical of 5-HT2A receptor activation (head-twitch response or wet dog shakes) (male Wistar rats [5]): did not demonstrate any behaviour
